Measurements reported in US6342633B1, “O-benzyl oxime ether derivatives and their use as pesticides” (Bayer Aktiengesellschaft, priority 1993, dated 2002).

| melting point [°C] | Compound |
| --- | --- |
| 100 to 106 | CNC(=S)/C(=N/OC)c1ccccc1CO/N=C(\C)c1cccc(C(F)(F)F)c1 [Compound 4.51, N-methyl-2-[2-(methyl(3-trifluoromethylphenyl)oximinomethyl)phenyl]-2-methoximinothioacetamide] |
| 88 to 89 | CNC(=S)/C(=N/OC)c1ccccc1CON=C(C)c1ccc(Cl)cc1 [Compound 4.10] |
| 79 to 80 | C/N=C(OC)/C(=N/OC)c1ccccc1CO/N=C(\C)c1ccc(Cl)cc1 [Example H-4, N,O-dimethyl-2-[2-(methyl(4-chlorophenyl)oximinomethyl)phenyl]2-methoximinoacetimidate] |
| 73 to 75 | [H]/N=C(OC)/C(=N/OC)c1ccccc1CON=C(C)c1ccc(Cl)cc1 [Compound 1.13] |
| 76 to 78 | CO/N=C(N)/C(=N/OC)c1ccccc1CO/N=C(\C)c1ccc(Cl)cc1 [Compound 3.101] |
